Laboratory results: paper PMC9147171, “Pharmacokinetic/Pharmacodynamic Evaluation of a New Purine-2,6-Dione Derivative in Rodents with Experimental Autoimmune Diseases” (Pharmaceutics, 2022)

Columns and labels:
[1] = Pharmacokinetic study in rats, single IP dose, serum; type: in vivo; details: female, Lewis, rat
Method: Female Lewis rats and female C57BL/6 mice were administered IP with compound 34 dissolved in vehicle at a dose of 20 and 50 mg·kg^−1, respectively. Rats and mice were sacrificed at different time points (n = 3 per time point) following compound administration by decapitation under deep anesthesia. Thereafter, blood samples were harvested and allowed to clot at room temperature for 20 min and serum was separated by centrifugation at 3000 rpm for 10 min (EBA 12 R, Hettich, Germany). The obtained serum samples were stored at −80 °C until analysis.
Concentrations of compound 34 in rat and murine serum were quantified by an HPLC/UV method. To isolate the investigated compound, 100 μL of serum containing compound 34 or the same volume of blank serum spiked with a standard solution of compound 34, 10 μL of 4-(8-((furan-2-ylmethyl)amino)-1,3-dimethyl-2,6-dioxo-2,3,6,7-tetrahydro-1H-purin-7-yl)-N’-(2-hydroxybenzylidene)butanehydrazide methanol solution was used as an internal standard (IS) at a concentration of 80 μg·mL^−1, and 50 μL of 0.2 M NaOH solution was added. Subsequently, 1 mL of ethyl acetate was added to each sample and extraction was performed for 20 min on a VXR Vibrax shaker (IKA, Germany). Then, the samples were centrifuged (10,000× g, 5 min) on EBA 12 R centrifuge (Hettich, Germany) and the organic layers were collected and transferred to clean tubes. Subsequently, the organic layers were evaporated under a mild stream of nitrogen at 37 °C and the residues were dissolved in 100 μL of mobile phase and subjected to an HPLC analysis. The HPLC system (LaChrom Elite, Merck-Hitachi, Germany) consisted of L-2420 UV-VIS detector, an L-2200 autosampler, and an L-2130 pump. EZChrome Elite v. 3.2 (Merck-Hitachi, Germany) software was used for data acquisition and integration. The analysis was performed at ambient temperature on a LiChrospher 100 RP-18 column (250 × 4 mm) and a LiChroCART (4 × 4 mm) pre-column (Merck, Germany). The mobile phase was composed of acetonitrile mixed with 20 mM KH2PO4 water solution (pH = 4.5) at the ratio of 40:60 (v/v). A flow rate was 1 mL·min^−1 and analytical wavelength was set at 302 nm. The retention times of compound 34 and IS were approximately 6.3 min and 10.6 min. The method was validated according to the FDA Bioanalytical Method Validation Guidance for Industry (2018). The calibration curves constructed by plotting the peak area of the studied compound to the peak area of the IS vs. compound concentrations were linear in the tested concentration range, i.e., from 0.05–10 mg·L^−1 (r > 0.998). The limit of quantification was 0.05 mg·L^−1. […] The assay presented acceptable intra- and inter-assay precision and accuracy (i.e., they were within 15% of the CV and 15% of the nominal concentration, respectively) for all quality control concentrations (0.1, 1, and 5 mg·L^−1). The mean extraction efficiencies of the analyzed compound and the IS were above 80%.
Pharmacokinetics of compound 34 were investigated in rats and mice following single IP administration. One- and two-compartment models with first-order absorption and linear elimination were tested, but only the one-compartment model appropriately described the concentration-time courses of compound 34 in both rat and murine serum. […] The equations of the model are as follows:(1) dA/dt=−ka×A;A0=D×F, (2) Vd×dCp/dt=ka×A−CLT×Cp; Cp0=0 where A is the amount of the drug at the absorption site, ka is the first-order rate constant of drug absorption, D is the dose, F is the bioavailability, Vd is the volume of distribution, CLT is the total clearance, and Cp is the serum concentration of compound 34.

[2] = system: MOG35–55-induced EAE in mice; assay: MOG35-55-induced experimental autoimmune encephalomyelitis (EAE) in mice, PK/PD EAE progression model; type: in vivo, female C57BL/6 mice
Method: Female C57BL/6 mice were immunized by subcutaneous injection of MOG35–55 peptide emulsified in complete Freund’s adjuvant and IP administration of pertussis toxin solution in PBS (Hooke Laboratories, Inc., Lawrence, MA, USA). Mice developed EAE 8–14 days after immunization and on day 14 they were randomly divided into two groups. The study group (n = 6) was administered with compound 34 solution at an IP dose of 50 mg·kg^−1 once daily for 15 days, whereas the control group (n = 6) received vehicle alone. To follow the progress of the disease, clinical score (CS) (scale 0–5), including “in-between” scores (i.e., 0.5, 1.5, 2.5, 3.5, and 4.5), and body weight of mice were evaluated according to the protocol provided by Hooke Laboratories, Inc.. Using the Mann–Whitney U test, it was verified that there is no significant difference in CS between the groups on the day of randomization. […]
The model assumes that some time is required for the compound to distribute from the serum to the site of action before it interacts with a biological target and exerts the pharmacological effect. […] The progression of disease, which was measured by CS, is stimulated by the sum of the signals from 20th and 38th transit compartments that allows us to capture the onset of the disease, the temporary remission, and the relapse of the disease that is a characteristic feature of this animal model of MS [30]. […]

[3] = system: LPS-induced endotoxemia in rats; parameters: method as in PMID 29407965; details: single IP dose of 50 mg·kg^−1, at 1.5 h post-LPS dosing; cited from earlier work
PDE4B = details: read-out: IC50 (µM) Against PDE Isoform PDE4B; cited from earlier work
PDE7A = details: read-out: IC50 (µM) Against PDE Isoform PDE7A; cited from earlier work

Cn1c(=O)c2c(nc(NCCc3ccccc3)n2CCCC(=O)NN=Cc2ccc(O)c(O)c2O)n(C)c1=O [Compound 34, 4-(1,3-dimethyl-2,6-dioxo-8-(phenethylamino)-2,3,6,7-tetrahydro-1H-purin-7-yl)-N′-(2,3,4-trihydroxybenzylidene)butanehydrazide]
absorption half-life ([1]; serum, 20 mg·kg^−1, IP, suspension in 10% methylcellulose): 1.2 min
Vd/F ([1]; single IP dose 20 mg·kg^−1, serum, one-compartment model, read-out: Vd/F Apparent volume of distribution, Final Estimate (CV%)): 8.7 L/kg
AUC ([1]; single IP dose 20 mg·kg^−1, serum, read-out: AUC Area under the concentration-time curve, Final Estimate (CV%) (converted)): 752 ng·h/mL
CL/F ([1]; single IP dose 20 mg·kg^−1, serum, read-out: CLT/F Apparent clearance, Final Estimate (CV%)): 440 mL/min/kg
Cmax ([1]; single IP dose 20 mg·kg^−1, serum, read-out: Cmax Maximum serum concentration, Final Estimate (CV%)): 1820 ng/mL
half-life ([1]; single IP dose 20 mg·kg^−1, serum, read-out: t0.5 Elimination half-life, Final Estimate (CV%)): 13.6 min
mean relative body weight, experimental vs control group ([2]; 50 mg·kg^−1 IP once daily for 15 days): not significantly different
IC50 at 50 mg/kg ([2]; Mus musculus, ip, 50 mg·kg^−1 IP once daily for 15 days from day 14, clinical score, PK/PD model estimate, read-out: IC50_CS Compound 34 concentration resulting in 50% inhibition of disease progression, Estimate (CV%)): 7 ng/mL
reduction of maximum plasma TNFα concentrations [3]: 84%
IC50 (PDE4B): 1.4 µM
IC50 (PDE7A): 3.2 µM
